Read-outs that look alike come from different tables or passages of the source.
What was measured:
HCT116^+/+ = test: Antiproliferative assay (MTS, 72 h) on HCT116 wild type; type: cell-based, human; conditions: MTS, 72 h incubation, read-out: Activity IC50 HCT116^+/+
Experimental: (§1) All of the synthesized compounds were tested for their antiproliferative activity against human colon cancer (Table 1). We used both the wild-type and p53-negative cell lines (HCT116^+/+ and HCT116^−/−, respectively). Mutations in the TP53 gene are present in more than 50% of all cancers and often specifically correspond to a difficult therapy, resistance or a bad prognosis[60]–[63]. The active compounds were additionally tested for their cytotoxicity against normal human fibroblasts. We used 5-fluorouracil (5-FLU), doxorubicin (DOX) and CP-31398 as the standards. 5-FLU is one of the first antimetabolites that was dedicated for cancer treatment and is still used for a wide range of cancers including colon carcinoma. Doxorubicin is a DNA topoisomerase II poison with a high intercalating potency, which is able to induce apoptosis through the p53 pathway. Although DOX has been described as being ineffective in some p53 mutants, its level of activity against the p53 null lines is similar. CP-31398, on the other hand, is an experimental drug in the clinical phase and its mechanism of action is through the reactivation some of p53 mutants. Its activity against the p53 null cell lines is greatly diminished and is actually lower than its cytotoxicity.
(§2) The human colon cancer cell line HCT116 wild type was obtained from ATCC and the normal human fibroblast cell lines NHDF were obtained from PromoCell. The human colon cancer cell line HCT116 with a p53 deletion (p53^−/−) was kindly provided by Prof. M. Rusin from the Maria Sklodowska-Curie Memorial Cancer Centre and Institute of Oncology in Gliwice, Poland[89]. The cells were grown as monolayer cultures in Dulbecco’s modified Eagle’s medium with the antibiotic gentamicin (200 μL/100 mL medium) in 75 cm^2 flasks (Nunc). The DMEM for the HCT116 were supplemented with 12% heat-inactivated fetal bovine serum (Sigma-Aldrich, St. Louis, MO, USA) and for NHDF with 15% non-inactivated fetal bovine serum (Sigma Aldrich, St. Louis, MO, USA). The cells were cultured under standard conditions at 37 °C in a humidified atmosphere at 5% CO2.
(§3) The cells were seeded in 96-well plates (Nunc) at a density of 5,000 cells/well (HCT116) and 4,000 cells/well (NHDF) and incubated at 37 °C for 24 h. The assay was performed following a 72 h incubation with varying concentrations of the compounds that were being tested. Then, 20 µL of CellTiter 96® AQueous One Solution-MTS (Promega) was added to each well (with 100 µL DMEM without phenol red) and incubated for 1 h at 37 °C. The optical densities of the samples were analyzed at 490 nm using a Synergy 4 multi-plate reader (BioTek, Winooski, VT, USA). The results are expressed as the percentage of the control and were calculated as the inhibitory concentration (IC50) values (using a GraphPad Prism 7). The IC50 parameter was defined as the compound concentration that was necessary to reduce the proliferation of cells to 50% of the untreated control. Each individual compound was tested in triplicate in a single experiment with each experiment being repeated three or four times.

HCT116^−/− = test: Antiproliferative assay (MTS, 72 h) on HCT116 with p53 deletion; type: cell-based, human; conditions: for IC50: MTS, 72 h incubation
Experimental: as §1, §2, §3

NHDF = test: Cytotoxicity (MTS, 72 h) against normal human fibroblasts; type: cell-based; conditions: MTS, 72 h incubation
Experimental: as §1, §2, §3

Row | Structure (SMILES) | IC50 (HCT116^+/+; Homo sapiens, HCT-116) | IC50 (HCT116^−/−; Homo sapiens, HCT-116) | IC50 (NHDF; Homo sapiens, NHDF) | melting point | selectivity towards the p53 null cells (HCT116 p53^−/− vs wild type) (HCT116^−/−) | IC50 (HCT116^+/+) | IC50 (HCT116^−/−) | IC50 (NHDF)
1 | O=C(Nc1cc(F)c(C(F)(F)F)cc1F)c1ccc2ccccc2c1O [4z] | 4.22 ± 0.87 µM | 2.82 ± 0.77 µM | 18.4 ± 0.91 µM | 229 to 231 °C | – | – | – | –
2 | O=C(Nc1ccc(F)c(C(F)(F)F)c1)c1ccc2ccccc2c1O [7m] | 12 ± 3.68 µM | 14.5 ± 4.53 µM | > 25 µM | 164 to 166 °C | – | – | – | –
3 | Cc1ccc(NC(=O)c2ccc3ccccc3c2O)cc1C(F)(F)F [7l] | > 25 µM | > 25 µM | – | 168 to 171 °C | – | – | – | –
4 | O=C(Nc1cc(F)ccc1F)c1ccc2ccccc2c1O [4e] | 4.76 ± 0.76 µM | 15.1 ± 6.75 µM | > 25 µM | 153 to 155 °C | – | – | – | –
5 | O=C(Nc1cc(Cl)ccc1F)c1ccc2ccccc2c1O [4s] | 8.66 ± 1.61 µM | 10.7 ± 1.73 µM | > 25 µM | 169 to 171 °C | – | – | – | –
6 | O=C(Nc1c(F)c(F)cc(F)c1F)c1ccc2ccccc2c1O [4m] | 12 ± 0.92 µM | > 25 µM | > 25 µM | 160 to 163 °C | – | – | – | –
7 | COc1cc([N+](=O)[O-])ccc1NC(=O)c1ccc2ccccc2c1O [2g] | 2.62 ± 0.85 µM | 3.73 ± 1.09 µM | 7.53 ± 2.97 µM | 250 to 253 °C | – | – | – | –
8 | O=C(Nc1ccc(F)cc1Cl)c1ccc2ccccc2c1O [5m] | 7.57 ± 2.16 µM | 8.29 ± 2.92 µM | > 25 µM | 162 to 166 °C | – | – | – | –
9 | O=C(Nc1c(Br)cc(F)c(Cl)c1Br)c1ccc2ccccc2c1O [6m] | > 25 µM | > 25 µM | – | 244 to 247 °C | – | – | – | –
10 | O=C(Nc1c(Cl)cc(C(F)(F)F)cc1Cl)c1ccc2ccccc2c1O [5v] | > 25 µM | > 25 µM | – | 191 to 194 °C | – | – | – | –
11 | COc1ccc([N+](=O)[O-])cc1NC(=O)c1ccc2ccccc2c1O [2h] | 7.05 ± 1.75 µM | 7.42 ± 2.05 µM | > 25 µM | 215 to 218 °C | – | – | – | –
12 | O=C(Nc1cc(F)cc(F)c1)c1ccc2ccccc2c1O [4h] | 1.79 ± 0.44 µM | 2.24 ± 0.3 µM | 9.87 ± 0.66 µM | 199 to 200 °C | – | – | – | –
13 | O=C(Nc1ccc(Br)c(F)c1)c1ccc2ccccc2c1O [4v] | 10.9 ± 2.69 µM | 12.4 ± 1.11 µM | > 25 µM | 199 to 202 °C | not selective | – | – | –
14 | O=C(Nc1ccc(Cl)c(C(F)(F)F)c1)c1ccc2ccccc2c1O [7n] | 9.66 ± 3.17 µM | 18.7 ± 2.78 µM | > 25 µM | 173 to 175 °C | – | – | – | –
15 | O=C(Nc1c(F)cc(F)cc1F)c1ccc2ccccc2c1O [4k] | > 25 µM | > 25 µM | – | 180 to 184 °C | – | – | – | –
16 | O=C(Nc1ccc(F)c(F)c1)c1ccc2ccccc2c1O [4g] | 3.04 ± 0.06 µM | 5.88 ± 0.5 µM | – | 153 to 156 °C | – | – | – | –
17 | O=C(Nc1cc(F)ccc1Br)c1ccc2ccccc2c1O [6j] | 7.78 ± 1.37 µM | 5.83 ± 1.06 µM | > 25 µM | 187 to 190 °C | – | – | – | –
18 | O=C(Nc1cc(Br)ccc1F)c1ccc2ccccc2c1O [4t] | 11.9 ± 1.28 µM | 14 ± 2.2 µM | > 25 µM | 174 to 177 °C | – | – | – | –
19 | Cc1ccc(C(F)(F)F)cc1NC(=O)c1ccc2ccccc2c1O [3i] | 8.41 ± 1.07 µM | 5.08 ± 1.23 µM | > 25 µM | 140 to 143 °C | – | – | – | –
20 | O=C(Nc1cccc(Cl)c1F)c1ccc2ccccc2c1O [4o] | 8.78 ± 2.18 µM | 6.76 ± 2.37 µM | > 25 µM | 172 to 174 °C | – | – | – | –
21 | O=C(Nc1ccc(Br)cc1F)c1ccc2ccccc2c1O [4r] | 15 ± 4.82 µM | 3.43 ± 0.69 µM | > 25 µM | 172 to 174 °C | roughly 4.5 fold | – | – | –
22 | O=C(Nc1ccc(F)c(F)c1F)c1ccc2ccccc2c1O [4i] | 4.28 ± 0.66 µM | 4.43 ± 0.66 µM | > 25 µM | 173 to 175 °C | – | – | – | –
23 | Cc1cc(C)c(NC(=O)c2ccc3ccccc3c2O)c(C)c1 [3g] | > 25 µM | > 25 µM | – | 160 to 163 °C | – | – | – | –

Row | Structure (SMILES) | IC50 (HCT116^+/+; Homo sapiens, HCT-116) | IC50 (HCT116^−/−; Homo sapiens, HCT-116) | IC50 (NHDF; Homo sapiens, NHDF) | melting point | selectivity towards the p53 null cells (HCT116 p53^−/− vs wild type) (HCT116^−/−) | IC50 (HCT116^+/+) | IC50 (HCT116^−/−) | IC50 (NHDF)
24 | O=C(Nc1ccc(F)cc1F)c1ccc2ccccc2c1O [4d] | 6.55 ± 0.83 µM | 11.4 ± 1.92 µM | > 25 µM | 185 to 187 °C | – | – | – | –
25 | O=C(Nc1cc(F)cc(C(F)(F)F)c1)c1ccc2ccccc2c1O [4×] | 9.01 ± 0.45 µM | > 25 µM | 24.1 ± 2.02 µM | 165 to 167 °C | – | – | – | –
26 | COc1ccc(Cl)c(NC(=O)c2ccc3ccccc3c2O)c1 [5p] | 24.1 ± 2.58 µM | 19.3 ± 2.09 µM | > 25 µM | 159 to 161 °C | – | – | – | –
27 | O=C(Nc1c(F)cccc1F)c1ccc2ccccc2c1O [4f] | > 25 µM | > 25 µM | – | 197 to 200 °C | – | – | – | –
28 | O=C(Nc1ccc(Cl)cc1F)c1ccc2ccccc2c1O [4q] | 9.89 ± 3.26 µM | 9.69 ± 3.13 µM | > 25 µM | 163 to 165 °C | – | – | – | –
29 | O=C(Nc1cc(C(F)(F)F)ccc1F)c1ccc2ccccc2c1O [4u] | 10.1 ± 2.61 µM | 7.45 ± 1.74 µM | > 25 µM | 190 to 192 °C | – | – | – | –
30 | COc1ccc(OC)c(NC(=O)c2ccc3ccccc3c2O)c1 [2d, N-(2,5-dimethoxyphenyl)−1-hydroxynaphthalene-2-carboxamide] | > 25 µM | > 25 µM | – | 116 to 119 °C | – | – | – | –
31 | O=C(Nc1cc(F)c(F)cc1F)c1ccc2ccccc2c1O [4j] | 1.87 ± 0.35 µM | 4.75 ± 0.05 µM | 24.52 ± 0.03 µM | 201 to 204 °C | – | – | – | –
32 | O=C(Nc1ccc(F)cc1C(F)(F)F)c1ccc2ccccc2c1O [7g] | > 25 µM | > 25 µM | – | 135 to 137 °C | – | – | – | –
33 | O=C(Nc1cccc(C(F)(F)F)c1F)c1ccc2ccccc2c1O [4p] | 6.5 ± 1.16 µM | 5.45 ± 1.72 µM | 24.4 ± 2.51 µM | 174 to 175 °C | – | – | – | –
34 | COc1ccc(NC(=O)c2ccc3ccccc3c2O)cc1C(F)(F)F [7k] | > 25 µM | > 25 µM | – | 183 to 186 °C | – | – | – | –
35 | COc1cccc(C)c1NC(=O)c1ccc2ccccc2c1O [2k] | > 25 µM | > 25 µM | – | 177 to 179 °C | – | – | – | –
36 | O=C(Nc1cc(F)c(F)c(F)c1)c1ccc2ccccc2c1O [4l] | 1.19 ± 0.31 µM | 1.42 ± 0.25 µM | 10 ± 0.54 µM | 242 to 247 °C | – | – | – | –
37 | O=C(Nc1ccc(Br)c(C(F)(F)F)c1)c1ccc2ccccc2c1O [7o] | > 25 µM | 13.9 ± 3.75 µM | > 25 µM | 172 to 173 °C | – | – | – | –
38 | COc1ccc(C)c(NC(=O)c2ccc3ccccc3c2O)c1 [3h] | 11.7 ± 3.81 µM | > 25 µM | > 25 µM | 128 to 130 °C | – | – | – | –
39 | COc1ccc(C)cc1NC(=O)c1ccc2ccccc2c1O [2j] | > 25 µM | > 25 µM | – | 106 to 108 °C | – | – | – | –
40 | O=C(Nc1ccc(C(F)(F)F)cc1Br)c1ccc2ccccc2c1O [6i] | 3.58 ± 1.25 µM | 2.19 ± 0.67 µM | 18.4 ± 1.23 µM | 168 to 170 °C | – | – | – | –
41 | O=C(Nc1c(F)c(F)c(F)c(F)c1F)c1ccc2ccccc2c1O [4n] | 11.6 ± 0.74 µM | 17.5 ± 0.76 µM | > 25 µM | 230 to 234 °C | – | – | – | –
42 | O=C(Nc1c(Br)cc(C(F)(F)F)cc1Br)c1ccc2ccccc2c1O [6l] | 9.37 ± 0.47 µM | 6.81 ± 2.66 µM | 20.4 ± 1.16 µM | 183 to 186 °C | – | – | – | –
43 | COc1cccc(NC(=O)c2ccc3ccccc3c2O)c1 [2b] | – | – | – | – | – | 8.51 ± 1.69 µM | 24.1 ± 3.54 µM | > 25 µM
44 | O=C(Nc1ccc([N+](=O)[O-])cc1C(F)(F)F)c1ccc2ccccc2c1O [7j] | – | – | – | – | – | 2.04 ± 0.71 µM | 4.74 ± 1.68 µM | 12.6 ± 1.32 µM
45 | O=C(Nc1ccc(C(F)(F)F)cc1C(F)(F)F)c1ccc2ccccc2c1O [7d] | – | – | – | – | – | 11.3 ± 1.31 µM | 8.69 ± 1.02 µM | > 25 µM
